The values that follow come from BindingDB's records for doi:10.1016/s0968-0896(98)00004-2 (Sankyo, 1998).

pIC50: −log10 of the molar value.

This experiment deals with T1, Dimer of Gag-Pol polyprotein [489-587] (Human immunodeficiency virus 1, UniProt P12497).
T1 construct: 489-587
As to the kind of experiment: Protease Inhibition Assay. The protocol: The inhibitory activities of the compounds toward HIV-1 PR were determined by sodium dodecyl sulfate-polyacrylamide gel electrophoresis (SDS-PAGE) assay. The IC50 values of active compounds were determined using the partially purified protease and the synthetic substrate Ac-Ser-Gln-AsnTyr-Pro-Ile-Val-NH2.

One may read the pIC50 as the IC50 on a negative log10 scale, so that one unit is a factor of ten. A higher pIC50 goes with a low IC50. As for `CC(C)(C)NC(=O)[C@@H]1C[C@H](Cl)CN1C(=O)[C@@H](O)[C@H](Cc1ccccc1)NC(=O)O[C@H]1C=CCOC1` [[5(R) - (5,6 - Dihydro - 2H-pyranyl)oxy]carbonyl - (2S,3S)-AHPBA-4(S)-Cl-Pro-NH-t-Bu], the pIC50 is 8.35.
Then `Cc1c(F)cccc1C(=O)N[C@@H](Cc1ccccc1)[C@H](O)C(=O)N1C[C@@H](Cl)C[C@H]1C(=O)NC(C)(C)C` [(3-Fluoro-2-methyl)benzoyl-(2S,3S)-AHPBA-4(S)-Cl-Pro-NH-t-Bu], with 8.25.
